According to ChEMBL document CHEMBL2380241, “Identification of novel SIRT3 inhibitor scaffolds by virtual screening” (Bioorg Med Chem Lett, 2013):
Activity calls are given as the source filed them. No cut-off for these calls is given here.

Columns and labels:
[1] = molecular target: T1, NAD-dependent protein deacetylase sirtuin-3, mitochondrial (Homo sapiens) (UniProt Q9NTG7); experiment: Inhibition of recombinant His-tagged SIRT3 (unknown origin) using Fluor de Lys acetylated KI179 as substrate at 200 uM incubated for 5 mins followed by enzyme addition measured after 1 hr by fluorescence assay relative to control
T1 sequence (whole entry): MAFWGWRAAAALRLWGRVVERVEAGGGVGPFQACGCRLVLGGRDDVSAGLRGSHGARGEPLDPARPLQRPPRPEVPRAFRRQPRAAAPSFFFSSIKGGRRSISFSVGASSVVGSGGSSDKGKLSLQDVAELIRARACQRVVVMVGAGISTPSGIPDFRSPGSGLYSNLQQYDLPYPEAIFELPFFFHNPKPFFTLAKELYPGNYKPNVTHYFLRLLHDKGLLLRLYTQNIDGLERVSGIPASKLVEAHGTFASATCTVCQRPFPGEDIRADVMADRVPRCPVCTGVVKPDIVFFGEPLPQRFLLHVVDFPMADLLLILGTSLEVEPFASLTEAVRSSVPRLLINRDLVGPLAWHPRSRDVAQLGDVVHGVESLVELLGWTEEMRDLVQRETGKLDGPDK

[2] = molecular target: T2, NAD-dependent protein deacetylase sirtuin-1 (Homo sapiens) (UniProt Q96EB6); experiment: Inhibition of recombinant GST-tagged SIRT1 (unknown origin) using Fluor de Lys acetylated KI177 as substrate at 200 uM incubated for 5 mins followed by enzyme addition measured after 1 hr by fluorescence assay relative to control
T2 sequence (whole entry): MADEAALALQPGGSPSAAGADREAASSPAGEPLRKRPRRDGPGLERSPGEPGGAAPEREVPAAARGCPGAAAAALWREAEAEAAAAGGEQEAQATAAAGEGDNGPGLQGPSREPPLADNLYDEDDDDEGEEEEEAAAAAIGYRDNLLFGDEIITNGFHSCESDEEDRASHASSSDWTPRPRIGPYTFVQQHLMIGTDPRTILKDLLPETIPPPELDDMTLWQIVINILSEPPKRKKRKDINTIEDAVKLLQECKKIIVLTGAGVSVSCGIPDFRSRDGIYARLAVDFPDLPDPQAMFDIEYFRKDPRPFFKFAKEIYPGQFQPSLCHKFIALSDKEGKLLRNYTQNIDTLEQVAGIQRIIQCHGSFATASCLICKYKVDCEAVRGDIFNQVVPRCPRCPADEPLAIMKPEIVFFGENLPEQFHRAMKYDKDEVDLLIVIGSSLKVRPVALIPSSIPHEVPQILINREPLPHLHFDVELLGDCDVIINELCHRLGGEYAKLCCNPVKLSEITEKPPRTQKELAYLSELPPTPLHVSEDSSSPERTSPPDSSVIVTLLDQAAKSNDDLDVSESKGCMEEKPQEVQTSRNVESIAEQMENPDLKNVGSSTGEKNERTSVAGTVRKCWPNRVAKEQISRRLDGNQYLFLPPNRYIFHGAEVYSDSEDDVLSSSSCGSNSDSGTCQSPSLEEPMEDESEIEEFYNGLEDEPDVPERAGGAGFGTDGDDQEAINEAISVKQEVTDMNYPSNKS

[3] = molecular target: T3, NAD-dependent protein deacetylase sirtuin-2 (Homo sapiens) (UniProt Q8IXJ6); experiment: Inhibition of recombinant GST-tagged SIRT2 (unknown origin) using Fluor de Lys acetylated KI179 as substrate at 200 uM incubated for 5 mins followed by enzyme addition measured after 1 hr by fluorescence assay relative to control
T3 sequence (whole entry): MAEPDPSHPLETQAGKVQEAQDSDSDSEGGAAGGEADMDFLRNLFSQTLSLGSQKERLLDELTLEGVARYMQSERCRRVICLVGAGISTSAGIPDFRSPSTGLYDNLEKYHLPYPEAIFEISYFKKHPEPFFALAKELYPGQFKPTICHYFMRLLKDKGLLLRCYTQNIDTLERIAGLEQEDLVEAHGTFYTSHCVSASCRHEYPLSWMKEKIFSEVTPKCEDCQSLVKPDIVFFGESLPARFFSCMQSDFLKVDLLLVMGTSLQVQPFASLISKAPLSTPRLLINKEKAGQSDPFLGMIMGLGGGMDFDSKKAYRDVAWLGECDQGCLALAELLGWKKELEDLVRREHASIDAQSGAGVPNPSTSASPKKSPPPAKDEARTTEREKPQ

Row | SMILES | inhibition [1] [%] | inhibition [2] | inhibition [3] [%]
1 | COc1ccc(N2C(=O)CC(N3CCN(c4ccc(S(C)(=O)=O)cc4)CC3)C2=O)cc1 (stereo not given) | 5.6 | – | –
2 | Cc1cccc(CN2CCC(CNC(=O)NCc3ccc(F)cc3)CC2)c1 | 5.6 | – | –
3 | CCOc1ccc(N2C(=O)CC(N3CCN(C(=O)c4cccnc4)CC3)C2=O)cc1 (stereo not given) | 10 | – | –
4 | COc1ccc(N2C(=O)CC(NCCc3ccc(S(N)(=O)=O)cc3)C2=O)cc1 (stereo not given) | 7.6 | – | –
5 | O=C1CC(N2CCC(Cc3ccccc3)CC2)C(=O)N1c1ccc(F)cc1 (stereo not given) | 15 | – | –
6 | Cc1ccc(N2C(=O)CC(N3CCN(c4ccc(F)cc4)CC3)C2=O)cc1 (stereo not given) | 6.6 | – | –
7 | Cc1cccc(N2C(=O)CC(N3CCN(c4cccc(C(F)(F)F)c4)CC3)C2=O)c1 (stereo not given) | 13 | – | –
8 | COc1ccc(CCNC2CC(=O)N(CCc3ccc(OC)c(OC)c3)C2=O)cc1OC (stereo not given) | 16 | – | –
9 | Cc1ccc(NC(=O)NCC2CCN(Cc3cc(C)ccc3Cl)CC2)c(C)c1 | 7.5 | – | –
10 | O=C1CC(N2CCN(c3cccc(C(F)(F)F)c3)CC2)C(=O)N1c1ccc(I)cc1 (stereo not given) | 11 | – | –
11 | NS(=O)(=O)c1ccc(CCNC2CC(=O)N(c3ccc(Cl)c(Cl)c3)C2=O)cc1 (stereo not given) | 11 | – | –
12 | O=C1CC(N2CCN(c3ccc(Cl)cc3)CC2)C(=O)N1c1ccc(F)cc1 (stereo not given) | 9.2 | – | –
13 | O=C1CC(N2CCN(c3cccc(C(F)(F)F)c3)CC2)C(=O)N1c1ccc(Cl)cc1 (stereo not given) | 20 | – | –
14 | O=C1CC(N2CCN(c3ccc(F)cc3)CC2)C(=O)N1Cc1ccccc1 (stereo not given) | 6.9 | – | –
15 | O=C1CC(N2CCN(c3ccc([N+](=O)[O-])cc3)CC2)C(=O)N1c1ccccc1 (stereo not given) | 74 | – | –
16 | CCOc1ccc(N2C(=O)CC(N3CCN(C(=O)c4ccccc4)CC3)C2=O)cc1 (stereo not given) | 5 | – | –
17 | COc1ccc(N2C(=O)CC(N3CCN(c4ccccc4O)CC3)C2=O)cc1 (stereo not given) | 8.4 | – | –
18 | O=C1CC(N2CCN(c3cccc(C(F)(F)F)c3)CC2)C(=O)N1c1cccc(Cl)c1 (stereo not given) | 13 | – | –
19 | O=C1CC(N2CCN(c3ccc(F)cc3)CC2)C(=O)N1c1ccc2c(c1)OCO2 (stereo not given) | 6.4 | – | –

Now from value to compound:

Row | inhibition [1] [%] | inhibition [2] | inhibition [3] [%] | SMILES
20 | 22 | – | – | O=C(Nc1ccc(Nc2ccccc2)cc1)c1c(Cl)cccc1Cl
21 | 16 | – | – | O=C(Cc1ccccc1)Nc1ccc2oc(-c3ccccc3F)nc2c1
22 | 44 | – | – | COc1cccc(-c2nc3cc(NC(=O)Cc4ccccc4)ccc3o2)c1
23 | 41 | – | – | O=C(Cc1ccccc1)Nc1ccc2oc(-c3cc(F)c(F)cc3Cl)nc2c1
24 | 72 | – | – | O=C1C(Cl)=C(Nc2cccc(O)c2)C(=O)N1CCc1ccccc1
25 | 33 | – | – | O=C(Cc1ccccc1)Nc1ccc2oc(-c3ccccc3Br)nc2c1
26 | 17 | – | – | O=C(Cc1ccc(Cl)cc1)Nc1ccc2oc(-c3ccccc3F)nc2c1
27 | 17 | – | – | Cc1ccc(-c2nc3cc(NC(=O)Cc4ccccc4)ccc3o2)cc1
28 | 39 | inactive | 35 | O=C(CSc1ncnc2c1oc1ccccc12)Nc1cccc(O)c1
29 | 51 | 17% | 44 | O=C(Cc1ccccc1)Nc1ccc2oc(-c3ccccc3Cl)nc2c1
30 | 13 | – | – | O=C(Cc1ccccc1)Nc1ccc2oc(-c3ccc(F)cc3Cl)nc2c1
31 | 11 | – | – | O=C(c1ccccc1)N1CCN(C2CC(=O)N(c3cccc(Cl)c3)C2=O)CC1 (stereo not given)
32 | 38 | – | – | O=C(/C=C/c1ccccc1)Nc1ccc2oc(-c3ccccc3F)nc2c1
33 | 34 | – | – | NS(=O)(=O)c1ccc(NC(=O)COC(=O)CN2C(=O)C(=O)c3ccccc32)cc1
34 | 17 | – | – | O=C(Cc1ccccc1)Nc1ccc2oc(-c3cccc(Cl)c3)nc2c1
35 | 13 | – | – | O=C(Cc1ccccc1)Nc1ccc2oc(-c3ccc(Cl)cc3)nc2c1
36 | 71 | 27% | 72 | O=C(Cc1ccccc1)Nc1ccc2oc(-c3ccc(Cl)cc3Cl)nc2c1
37 | 48 | 19% | 40 | O=C(Cc1ccccc1)Nc1ccc2oc(-c3cccc(Cl)c3Cl)nc2c1
38 | 7.5 | – | – | O=C(NCC1CCN(Cc2ccccc2Cl)CC1)Nc1cccc(Cl)c1
39 | 6.3 | – | – | O=C(CSCC(=O)Nc1ccc2ccccc2c1)NCc1ccccc1
40 | 32 | – | – | Cc1cccc(-c2nc3cc(NC(=O)Cc4ccccc4)ccc3o2)c1
41 | 10 | – | – | Cc1ccccc1CC1CCN(CCCNC(=O)Nc2ccccc2)CC1
42 | 6.8 | – | – | COc1cccc(-c2noc(CCC(=O)Nc3ccc(NC(C)=O)cc3)n2)c1
43 | 6.7 | – | – | CC(=O)Nc1ccc(NC(=O)CCC(=O)OCC(=O)c2cccc([N+](=O)[O-])c2)cc1
44 | 65 | 33% | 73 | O=C(Cc1ccccc1)Nc1ccc2oc(-c3cc(Cl)ccc3Cl)nc2c1
45 | 6.5 | – | – | O=C1CC(N2CCN(c3ccc(O)cc3)CC2)C(=O)N1c1ccccc1 (stereo not given)
46 | 32 | – | – | O=C(Cc1ccc(Cl)cc1)Nc1ccc2oc(-c3ccccc3Br)nc2c1
47 | 48 | 27% | 78 | O=C(/C=C/c1ccccc1)Nc1ccc2oc(-c3ccccc3Cl)nc2c1
48 | 1.9 | – | – | O=C(CCC(=O)Nc1ccc(F)c(Cl)c1)Nc1ccc(F)c(Cl)c1
